{"source": "patent US11833204B2", "about": "“Visible light-activatable nanoparticles for cancer immunotherapy and use thereof” (KOREA INSTITUTE OF SCIENCE AND TECHNOLOGY, priority 2021, dated 2023)", "key": {"[1]": {"experiment": "ROS generation under 671 nm laser (RNO test)", "settings": "10 μM, 671 nm laser 40 mW 250 sec", "protocol": "ROS generation was analyzed by RNO test, where bleaching of N-nitrosodimethylaniline (RNO) by ROS was observed as a decrease in absorbance at 440 nm.\nTo determine the reactivity of the self-assembled nanoparticles (LT-NPs) to visible light, experimental samples and a comparative sample were prepared as follows. Each sample was mixed with a 10 μM RNO standard solution and irradiated with visible light using a 671 nm laser (SDL-671 series, Shanghai Dream Laser Technology Co., Ltd.) at a power of 40 mW for 250 sec. Absorbances were measured at 440 nm over time while being irradiated with visible light.\nControl sample (VPF, control): Verteporfin (VPF) (10 μM) was mixed with physiological saline (1 mL).\nExperimental sample 1 (LT-NPs(-Cat-B)): The self-assembled nanoparticles (LT-NPs) (10 μM) prepared in Example 1 were mixed with physiological saline (1 mL).\nExperimental sample 2 (LT-NPs(+Cat-B)): The self-assembled nanoparticles (LT-NPs) (10 μM) prepared in Example 1 were mixed with distilled water (200 μL) containing cathepsin B (10 μg) and 1.2 mM histidine. […]\nFirst, the absorbance before laser irradiation was defined as 1 and reduction rates of the absorbance values measured at 440 nm with respect to the absorbance before laser irradiation were calculated. The calculated values were transformed into negative natural logs (−In(y)), which were then multiplied by 100. […]"}, "CT26 cells [2]": {"tested_on": "CT26 cells", "experiment": "Immunogenic cell death: calreticulin expression", "assay_type": "cell-based", "settings": "CT26, 5 μM, 24 h, +L/−L", "protocol": "First, CT26 cells were plated in 35 mm cell culture dishes at a density of 1×10^5 cells/dish and doxorubicin (DOX) (5 μM), verteporfin (VPF) (5 μM) or the self-assembled nanoparticles (LT-NPs) (5 μM) were added to each dish. After 24-h culture, one half was exposed by irradiation with visible light using a 671 nm laser at 40 mW for 250 sec (+L) and the other half was not irradiated with visible light for comparison (−L). The immunogenic cell death of the self-assembled nanoparticles (LT-NPs) was evaluated using the cells and the cell culture media.\nCells were stained with APC-conjugated CRT antibody for 12 h and observed with a confocal fluorescence microscope."}, "CT26 cells [3]": {"tested_on": "CT26 cells", "experiment": "In vivo behaviour and tumor accumulation in CT26 tumor animal model", "set-up": "species or system mice", "settings": "5 mg/kg i.v.", "protocol": "(§1) […] nude mice (6 weeks old, 20-25 g, male) bred in a sterile environment were used. The mice were acclimated for 2 weeks prior to starting the experiment. The mice had ad libitum access to food and water in cages maintained at a temperature of 22±2° C. and a humidity of 40-60% on a 12 h light and dark cycle during the experiment. All experimental procedures were performed according to the guidelines of the Institutional Animal Care and Use Committee of the Korea Institute of Science and Technology.\nColon cancer was induced in the male nude mice. To this end, 1×10^6 CT26 cells were subcutaneously inoculated into the left thigh of each mouse to construct a tumor animal model. Thereafter, the tumor was allowed to grow until its volume reached ˜200-250 mm^3 prior to the experiment. For sample administration, the mice were randomly divided into 4 groups, 24 animals per group. Verteporfin (VPF) was intravenously administered at a concentration of 5 mg/kg (“VPF-administered group”) and the self-assembled nanoparticles (LT-NPs) were intravenously administered at a concentration of 5 mg/kg (“LT-NPs-administered group”).\nThe in vivo behaviors of the drugs in the administered groups were evaluated by near-infrared imaging using an IVIS Lumina system for 0.5-9 h."}, "CT26 cells [4]": {"tested_on": "CT26 cells", "experiment": "Anticancer effect in CT26 tumor animal model", "assay_type": "in vivo, mice", "protocol": "as §1\nColon cancer was induced in the male nude mice. To this end, 1×10^6 CT26 cells were subcutaneously inoculated into the left thigh of each mouse to construct a tumor animal model. Thereafter, the tumor was allowed to grow until its volume reached ˜200-250 mm^3 prior to the experiment. For sample administration, the mice were randomly divided into 4 groups, 24 animals per group. In a control (“Con”), animals were administered intravenously PBS at a concentration of 5 mg/kg twice on days 0 and 2. In a DOX-administered group, animals were administered intravenously doxorubicin (DOX) at a concentration of 5 mg/kg twice on days 0 and 2. In a VPF(+L)-administered group, animals were administered intravenously verteporfin (VPF) at a concentration of 5 mg/kg twice on days 0 and 2 and exposed by irradiation with visible light using a 671 nm laser at 40 mW for 250 sec. In an LT-NPs(-L)-administered group, animals were administered intravenously the self-assembled nanoparticles (LT-NPs) at a concentration of 5 mg/kg twice on days 0 and 2. In an LT-NPs(+L)-administered group, animals were administered intravenously the self-assembled nanoparticles (LT-NPs) at a concentration of 5 mg/kg twice on days 0 and 2 and exposed by irradiation with visible light using a 671 nm laser at 40 mW for 250 sec.\nChanges in tumor volume (maximum diameter x minimum diameter^2×0.53) in the groups were measured every 2 days for a total of 0-25 days. After 7 days, blood was harvested from each group and analyzed for HSP70, HMGB1, immunogenic apoptotic cancer cells, mature dendritic cells, activated T cells, and IFN-γ levels.\n9 h after drug administration, cancer tissues were excised from each group. Each cancer tissue was sectioned to a thickness of 10 μm, washed twice with DBPS, and stained with DAPI in the dark for 15 min. The section was imaged using a Leica TCS SP8 focal microscope (Leica Microsystems GmbH).\nImmune cells infiltrated into cancer cells in each group were analyzed. After 7 days, animals in each group were euthanized under anesthesia and cancer tissues were collected. Monocytes were isolated using a tumor dissociation kit (Miltenyi Biotec) according to the manufacturer's protocol. Next, the monocytes were incubated with Fc block for 5 min to avoid non-specific binding and stained with antibodies for 1 h to determine the proportions of i) immunogenic apoptotic cancer cells (CD45 and CRT staining), ii) activated T cells (CD45, CD3, and CD8 staining), and iii) mature dendritic cells (CD11c, CD40, and CD86 staining) in the cancer tissues."}, "[5]": {"settings": "after 7 days, +L, Western blotting, versus other groups"}}, "data": [{"smiles": "C=CC1=C(C)/C2=C/C3=NC(Cc4[nH]c(c(CCCCC(=O)OC)c4C)CC4N=C(CC1N2)C(C)=C4CCC(=O)N[C@H](Cc1ccccc1)C(=O)N[C@@H](CCCNC(=N)N)C(=O)N[C@H](CCCNC(=N)N)C(=O)NCC(=O)NC1C[C@@H](OC2C[C@](O)(C(=O)CO)Cc4c(O)c5c(c(O)c42)C(=O)c2c(OC)cccc2C5=O)O[C@@H](C)[C@H]1O)[C@@]1(C)C3=CC=C(C(=O)OC)[C@@H]1C(=O)OC", "note": "(some centres unmarked) [LT-NPs, VPF-FRRG(SEQ ID NO: 1)-DOX]", "values": [{"measurement": "amount of ROS generated, relative to verteporfin (VPF)", "setting": "[1]; cleaved with cathepsin B", "result": 80, "unit": "%"}, {"measurement": "reactivity with visible light (ROS generation), stable state", "setting": "[1]; without Cat-B", "result": "hardly reactive with visible light"}, {"measurement": "calreticulin expression", "setting": "CT26 cells [2]", "result": "Significantly higher"}, {"measurement": "accumulation in cancer cells (histological analysis)", "setting": "CT26 cells [3]", "result": "accumulated in cancer cells with significantly higher efficacy than the conventional anticancer drug"}, {"measurement": "fluorescence intensity in cancer cells (near-infrared imaging)", "setting": "CT26 cells [3]; 0.5-9 h, IVIS Lumina", "result": "higher than those of Group 1 treated with verteporfin"}, {"measurement": "fluorescence intensity in cancer cells (drug accumulated in tissues)", "setting": "CT26 cells [3]; liver, lung, spleen, kidney, heart, tumor", "result": "higher than those of Group 1 treated with verteporfin"}, {"measurement": "number of animals cured", "setting": "CT26 cells [4]; 5 mg/kg i.v. days 0 and 2, +L", "result": 3}, {"measurement": "growth of cancer cells (tumor volume)", "setting": "CT26 cells [4]; 5 mg/kg i.v. days 0 and 2, +L (671 nm laser 40 mW 250 sec), versus other groups", "result": "significantly reduced"}, {"measurement": "proportion of activated T cells in cancer tissues", "setting": "CT26 cells [4]; after 7 days, +L", "result": "significantly higher than those in the other groups"}, {"measurement": "proportion of immunogenic apoptotic cancer cells in cancer tissues", "setting": "CT26 cells [4]; after 7 days, +L", "result": "significantly higher than those in the other groups"}, {"measurement": "proportion of mature dendritic cells in cancer tissues", "setting": "CT26 cells [4]; after 7 days, +L", "result": "significantly higher than those in the other groups"}, {"measurement": "expression level of HMGB1", "setting": "CT26 cells [4]; [5]", "result": "significantly high"}, {"measurement": "expression level of HSP70", "setting": "CT26 cells [4]; [5]", "result": "significantly high"}, {"measurement": "degree of apoptosis in cancer cells", "setting": "CT26 cells [4]; after 7 days, +L, versus other groups", "result": "significantly high"}]}]}
